Test results reported in patent US6849599B2, “Combination drug therapy” (priority 2000, dated 2005).

Key:
[1] = Toxicity and mortality in the treated HT29 xenograft nude mice; format: in vivo
Protocol: For in vivo studies, nude mice were inoculated subcutaneously in the left axillary region with 5×10^6 HT29 cells. When tumors were palpable (approximately 50 mg), mice were divided into groups (n=15-22) and treated as follows: (i) no treatment; (ii) TSP alone (5-40 mg/kg intraperitoneally) (iii) CPT-11 alone (100-300 mg/kg intraperitoneally); or (iv) TSP (20 mg/kg)+CPT-11 (150 mg/kg). TSP was injected daily while CPT-11 was administered on days 0, 7, 14, and 21. Mice were weighed and tumors measured twice weekly. […] Treated tumor size/Control tumor size (T/C) equaled 0.64 or 0.57, respectively. […] When TSP was combined with CPT-11, a highly significant inhibition of tumor growth was observed compared to control (T/C=0.1, with p=0.00002) and compared to CPT-11 alone (p=0.0008).

HT29 cells = assay: Tumor growth in nude mice bearing xenografts of human colon tumor cell line HT29; format: in vivo; details: for Treated tumor size/Control tumor size (T/C): p<0.05
Protocol: The antineoplastic activity of TSP plus CPT-11 was evaluated in an art-recognized model for cancer, nude mice bearing xenografts of the human colon tumor cell line HT29.

Compound: CCc1c2c(nc3ccc(OC(=O)N4CCC(N5CCCCC5)CC4)cc13)-c1cc3c(c(=O)n1C2)COC(=O)[C@]3(O)CC [CPT-11, 7-ethyl-10-[4-(1-piperidino)-1-piperidino]-carbonloxycamptothecin]
- Toxicity and mortality ([1]; CPT-11 alone at 250 mg/kg intraperitoneally): induced significant toxicity and mortality
- Toxicity and mortality ([1]; CPT-11 alone at 300 mg/kg intraperitoneally): induced significant toxicity and mortality
- average T/C (HT29 cells; CPT-11 alone, all doses (100-300 mg/kg intraperitoneally, days 0, 7, 14, 21), day 28, p<0.001): 0.3

Compound: Thrombospondin-1 [TSP]
- Treated tumor size/Control tumor size (T/C) (HT29 cells; TSP alone 10 mg/kg intraperitoneally daily, day 28): 0.64
- Treated tumor size/Control tumor size (T/C) (HT29 cells; TSP alone 20 mg/kg intraperitoneally daily, day 28): 0.57
- Inhibition of tumor growth, other doses (HT29 cells; TSP alone, other doses of 5-40 mg/kg intraperitoneally daily, compared with 10 or 20 mg/kg): less effective
